Key:
Format in all cases: cell-based
[1] = molecular target: T1, human melanopsin F94^2.61C/S188^ECL2T/W189^ECL2F/S269^6.52A mutant (Homo sapiens, UniProt Q9UHM6, F127C/S222T/S313A/W223F); experiment: GsX GloSensor assay with Gsα/q11; conditions: up to 16.7 μM AA92593, COS-1 cells
T1 construct: expressed in transfected cells; host or cells: COS-1
Description: (§1) Next, we attempted to render human melanopsin more ineffective to AA92593 by combining W189^ECL2F with F94^2.61C/S188^ECL2T/S269^6.52A. […] We note that the loss of sensitivity for AA92593 by the quadruple substitutions was not due to the substitutions-induced changes in absorption spectrum or localization in COS-1 cells. […] In the GloSensor assay, a small difference in G protein activation between the triple and quadruple mutants in the presence of AA92593 would be amplified through the second messenger signaling cascade.
(§2) For GloSensor assay, opsins, GloSensor assay sensor (coded by pGlo-22F), and NanoBiT-tagged G proteins were transiently expressed in COS-1 cells (kindly provided from Dr David Farrens, Oregon Health and Science University) using PEI as described previously ([24], [52]). For the GsX GloSensor assay ([12], [13]), each well of a 96-well assay plate (Corning) was transfected with 50 ng opsin plasmid, 16.7 ng G protein plasmid, 50 ng pGlo-22F plasmid (Promega), and 500 ng PEI in 25 μl Opti-mem and 75 μl Dulbecco's modified Eagle's medium (D-MEM). […] For GFP-fluorescence microscopy, a 35-mm cell culture dish (IWAKI) was transfected with 2 μg melanopsin-GFP plasmid and 8 μg PEI in 400 μl Opti-mem and 1.2 ml D-MEM. […]

[2] = test system: mouse melanopsin L207^5.42F mutant; experiment: GsX GloSensor assay with Gsα/q11; conditions: 16.7 μM AA92593, COS-1 cells
Description: as §1, §2

human melanopsin = molecular target: T2, human melanopsin (Homo sapiens, UniProt Q9UHM6); experiment: GsX GloSensor assay with Gsα/i11; parameters: the C-terminal amino acid residues (94, 140, 200, 214, 296, and 308 residues); expressed in transfected cells; host or cells: COS-1; conditions: 16.7 μM AA92593; COS-1 cells
T2 sequence (Q9UHM6 1-384 limits assumed): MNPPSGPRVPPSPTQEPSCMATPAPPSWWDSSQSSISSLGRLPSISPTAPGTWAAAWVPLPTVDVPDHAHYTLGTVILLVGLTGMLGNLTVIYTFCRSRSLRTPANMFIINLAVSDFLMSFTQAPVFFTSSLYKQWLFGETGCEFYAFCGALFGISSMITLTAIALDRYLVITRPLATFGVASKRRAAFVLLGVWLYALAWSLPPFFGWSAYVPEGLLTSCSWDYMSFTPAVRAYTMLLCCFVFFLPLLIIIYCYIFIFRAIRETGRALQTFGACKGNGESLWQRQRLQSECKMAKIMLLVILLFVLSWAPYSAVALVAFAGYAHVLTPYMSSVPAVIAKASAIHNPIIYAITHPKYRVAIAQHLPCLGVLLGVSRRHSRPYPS
Description: Previous studies of human and mouse melanopsins reported that these melanopsins can activate not only Gq but Gs and Gi ([20], [21], [22]). Thus, we assessed the effect of AA92593 on Gsα WT or Gsα/i11 (with 11 C-terminal sequence of Giα) using the GsX GloSensor assay. In agreement with the promiscuous G protein-coupling of melanopsins, we observed light-dependent increase of GloSensor luminescence in COS-1 cells expressing Gsα or Gsα/i11 with human/mouse melanopsins (Fig. 1, G–J).
For GloSensor assay, opsins, GloSensor assay sensor (coded by pGlo-22F), and NanoBiT-tagged G proteins were transiently expressed in COS-1 cells (kindly provided from Dr David Farrens, Oregon Health and Science University) using PEI as described previously ([24], [52]). […] For GFP-fluorescence microscopy, a 35-mm cell culture dish (IWAKI) was transfected with 2 μg melanopsin-GFP plasmid and 8 μg PEI in 400 μl Opti-mem and 1.2 ml D-MEM. […]
The transfected COS-1 cells were incubated at 37 °C, 5% CO2 for 2 days, and the medium was aspirated and exchanged with 50 μl of HBSS (145 mM NaCl, 10 mM D-glucose, 5 mM KCl, 1 mM MgCl2, 1.7 mM CaCl2, 1.5 mM NaHCO3, 10 mM Hepes, pH 7.4), containing 33.3, 20, 10, 2, 0.2, 0.02, 0.002, or 0 μM AA92593, 0.5% dimetyl sulfoxide (DMSO), and 4% (vol/vol) GloSensor cAMP reagent stock solution. […] Luminescence was measured using GM-2000 or GM-3510 microplate reader (Promega). […]

T1 sequence (Q9UHM6 1-384 F127C/S222T/W223F/S313A): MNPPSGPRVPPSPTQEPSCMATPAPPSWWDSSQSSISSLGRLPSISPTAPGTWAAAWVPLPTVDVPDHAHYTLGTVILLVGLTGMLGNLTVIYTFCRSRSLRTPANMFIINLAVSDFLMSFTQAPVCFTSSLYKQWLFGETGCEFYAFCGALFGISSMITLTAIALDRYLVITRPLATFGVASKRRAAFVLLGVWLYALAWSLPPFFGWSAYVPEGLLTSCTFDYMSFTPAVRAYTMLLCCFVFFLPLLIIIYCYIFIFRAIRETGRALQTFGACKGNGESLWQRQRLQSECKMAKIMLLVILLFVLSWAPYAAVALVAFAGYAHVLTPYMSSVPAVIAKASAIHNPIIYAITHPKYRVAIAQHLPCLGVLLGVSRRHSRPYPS

Structure (SMILES): COc1ccc(S(=O)(=O)N2CCCCC2)cc1C [AA92593]
- sensitivity to AA92593 [1]: almost completely lost sensitivity
- increased susceptibility to the antagonist vs WT [2]: ~26%
- effect on melanopsin-induced cAMP responses via Gsα/i11 (human melanopsin): can suppress

Reference: PMC12051620, “Molecular basis underlying the specificity of an antagonist AA92593 for mammalian melanopsins” (The Journal of Biological Chemistry, 2025)
